Patent US11160871B2, “SSTR-targeted conjugates and particles and formulations thereof” (TARVEDA THERAPEUTICS, INC., priority 2015, dated 2021)
Where two headings read alike, the source gives them in different places. Starred links: 1 amine or outer side, 2 acyl side, 3 side chain; linkers in the order of their positions; H or OH if unused. Positions of bridges follow the written chain, without caps; N, C: chain ends. Non-standard residues stand in square brackets, D forms with d. Residues, ends and D or L forms follow the SMILES beside them. *: point of attachment. X1 = COc1cc2cc(c1Cl)N(C)C(=O)C[C@H](OC(=O)[C@H](C)N(C)C(=O)CCS*)[C@]1(C)O[C@H]1[C@H](C)[C@@H]1C[C@@](O)(NC(=O)O1)[C@H](OC)/C=C/C=C(\C)C2; N(3-sulfanylpropyl)dPhe = O=C([C@@H](Cc1ccccc1)N(CCCS[*:3])[*:1])[*:2]

Columns and labels:
NCI-H69 SCLC tumors = assay: H69 tumor DM-1 levels by LC/MS-MS; format: in vivo, mice; conditions: 1 mg/kg; 24 hour time point
Method: (§1) To examine the ability of conjugates of the present invention to accumulate in tumors, a murine cancer model was used. All mice were treated in accordance with the OLAW Public Health Service Policy on Human Care and Use of Laboratory Animals and the ILAR Guide for the Care and Use of Laboratory Animals. All in vivo studies were conducted following the protocols approved by the Blend Therapeutics Institutional Animal Care and Use Committee. Animals were inoculated with 2.5×10^6 NCI-H69 SCLC (small cell lung cancer) cells in 1:1 RPMI 1640 (Invitrogen, Carlsbad, Calif.)/Matrigel® (BD Biosciences, San Jose, Calif.) via subcutaneous injection to the right flank. Tumors were allowed to reach an approximate volume of ˜500 mm3. Animals were then randomized into treatment groups of 3 animals per time point and were dosed at 1 mg/kg (10% propylene glycol in water for injection for free conjugates, or 10% sucrose for nanoparticles), or 0.4 mg/kg for DM-1 (10% propylene glycol in water for injection). The 24 hour time point was used as a benchmark across conjugates.
(§2) Tumor DM-1 levels were determined by liquid chromatography mass spectrometry (LC/MS-MS). Four volumes of 5 mM 6-maleimidohexanoic acid to 1 part tumor v/w was added and homogenized for about 10-15 seconds with a handheld homogenizer. 10 μL of 500 mM Tris(2-carboxyethyl)phosphine was added to 100 uL of tumor homogenate, mixed well and incubated at room temperature for about 5-15 min. 200-300 uL of acetonitrile was used to precipitate proteins in tumor homogenate, samples were centrifuged for 5 min, and supernatant was injected onto LC/MS-MS system for DM-1 analysis.

SSTR4 = SSTR4 (Homo sapiens, UniProt P31391); conditions: read-out: Octreoscan Ki; cited from earlier work
SSTR2 = SSTR2 (Homo sapiens, UniProt P30874); set-up: expressed in transfected cells; conditions: read-out: Octreoscan Ki; cited from earlier work
SSTR5 = SSTR5 (Homo sapiens, UniProt P35346); conditions: read-out: Octreoscan Ki; cited from earlier work
SSTR3 = SSTR3 (Homo sapiens, UniProt P32745); conditions: read-out: Octreoscan Ki; cited from earlier work
SSTR1 = SSTR1 (Homo sapiens, UniProt P30872); conditions: read-out: Octreoscan Ki; cited from earlier work
[1] = tested on: NCI-H524 human small cell lung cancer cells; assay: cells; format: cell-based
Method: Conjugates of the present invention were assessed in an in vitro assay evaluating inhibition of cell proliferation. NCI-H524 (ATCC) human small cell lung cancer cells were plated in 96 well, V-bottomed plates (Costar) at a concentration of 5,000 cells/well. 24 hours later, cells were treated with either conjugate for 2 hours and further incubated 70 hours, or for octreotide competition experiments, treated with 100 μM octreotide for 30 min, and then treated with conjugate for 2 hours, and further incubated for 70 hours. Conjugate starting dose was 20 μM and three fold serial dilutions were done for a total of ten points. After 2 hours of treatment, cells were spun down, the drug containing media was removed, and fresh complete medium was added and used to resuspend the cells, which were spun again. After removal of the wash media, the cells were resuspended in complete medium, and then transferred into white walled, flat bottomed 96 well plates. […] Proliferation was measured using CellTiter Glo reagent using the standard protocol (Promega) and a Glomax multi+ detection system (Promega). Percent proliferation inhibition was calculated using the following formula: % inhibition=(control−treatment)/control*100. Control is defined as vehicle alone. IC50 curves were generated using the nonlinear regression analysis (four parameter) with GraphPad Prism 6.

[2] = H69 tumor DM-1 levels by LC/MS-MS; format: in vivo, mice; conditions: mouse, tumor (NCI-H69 SCLC xenograft); 0.4 mg/kg for DM-1; 24 hour time point
Method: as §1, §2

[3] = Single dose exploratory toxicity study; format: in vivo, SD female rat; conditions: 0.4 mg/kg
Method: Single dose exploratory toxicity studies in SD female rat (dose 0.5 mg/kg to 1.5 mg/kg) for 7-10 days were carried out. Clinical observations, body weight, clinical blood chemistry, histopathology, and complete blood counts were assessed. In the 10-day study, DM1 (0.4 mg/kg) was compared to Conjugate 57 at an equivalent dose of DM1 (1.0 mg/kg of conjugate) and at a 50% higher dose (1.5 mg/kg of conjugate).
Decreased white blood cell (WBC) count is a known dose limiting toxicity of DM1. WBC count was tracked in all groups.
Liver toxicity is also a know dose limiting toxicity of DM1. Alanine transaminase (ALT) and aspartate aminotransferase (AST) are markers of liver toxicity and were measured in all groups.

Chain of SSTR3 (P32745 whole entry): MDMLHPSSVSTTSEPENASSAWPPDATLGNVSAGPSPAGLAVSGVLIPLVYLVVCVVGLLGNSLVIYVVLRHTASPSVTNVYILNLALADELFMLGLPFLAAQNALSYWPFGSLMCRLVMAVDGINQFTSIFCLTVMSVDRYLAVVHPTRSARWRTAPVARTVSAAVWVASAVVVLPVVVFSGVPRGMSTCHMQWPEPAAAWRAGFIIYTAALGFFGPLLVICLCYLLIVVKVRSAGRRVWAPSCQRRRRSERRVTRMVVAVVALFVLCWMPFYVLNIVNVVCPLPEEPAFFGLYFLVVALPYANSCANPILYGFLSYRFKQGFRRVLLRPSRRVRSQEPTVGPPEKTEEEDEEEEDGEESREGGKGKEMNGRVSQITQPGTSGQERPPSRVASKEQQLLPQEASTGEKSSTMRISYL
Chain of SSTR2 (P30874 whole entry): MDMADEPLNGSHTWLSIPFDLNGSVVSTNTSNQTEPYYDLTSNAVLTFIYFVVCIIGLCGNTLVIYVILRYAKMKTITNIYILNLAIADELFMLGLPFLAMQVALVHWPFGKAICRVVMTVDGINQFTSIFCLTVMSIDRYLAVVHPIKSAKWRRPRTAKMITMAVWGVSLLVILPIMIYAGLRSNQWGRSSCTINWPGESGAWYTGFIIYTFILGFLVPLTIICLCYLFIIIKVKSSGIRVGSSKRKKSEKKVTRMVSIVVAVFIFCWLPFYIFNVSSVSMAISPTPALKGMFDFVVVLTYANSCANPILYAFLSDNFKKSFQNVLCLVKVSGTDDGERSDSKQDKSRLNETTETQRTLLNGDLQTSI
Chain of SSTR4 (P31391 whole entry): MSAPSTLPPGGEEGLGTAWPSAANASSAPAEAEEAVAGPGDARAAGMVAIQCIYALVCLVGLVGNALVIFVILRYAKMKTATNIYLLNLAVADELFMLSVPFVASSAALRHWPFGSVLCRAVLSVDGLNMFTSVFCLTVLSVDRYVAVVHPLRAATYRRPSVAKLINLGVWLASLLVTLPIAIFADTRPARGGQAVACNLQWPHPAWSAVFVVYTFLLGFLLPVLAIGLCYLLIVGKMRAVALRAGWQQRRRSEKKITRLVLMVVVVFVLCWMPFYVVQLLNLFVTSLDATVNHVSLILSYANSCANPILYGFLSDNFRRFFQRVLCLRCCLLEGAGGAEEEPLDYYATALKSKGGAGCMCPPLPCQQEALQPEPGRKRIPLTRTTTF
Chain of SSTR5 (P35346 whole entry): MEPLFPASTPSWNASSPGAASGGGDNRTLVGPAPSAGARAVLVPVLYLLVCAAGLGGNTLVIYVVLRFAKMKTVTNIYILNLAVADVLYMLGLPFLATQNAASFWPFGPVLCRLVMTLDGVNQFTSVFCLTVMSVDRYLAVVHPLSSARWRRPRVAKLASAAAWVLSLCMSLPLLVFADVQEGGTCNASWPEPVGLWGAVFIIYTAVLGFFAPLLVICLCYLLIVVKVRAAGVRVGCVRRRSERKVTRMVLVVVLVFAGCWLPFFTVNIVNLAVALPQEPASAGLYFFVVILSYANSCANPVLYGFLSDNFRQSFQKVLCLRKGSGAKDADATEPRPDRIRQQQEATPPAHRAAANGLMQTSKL
Chain of SSTR1 (P30872 whole entry): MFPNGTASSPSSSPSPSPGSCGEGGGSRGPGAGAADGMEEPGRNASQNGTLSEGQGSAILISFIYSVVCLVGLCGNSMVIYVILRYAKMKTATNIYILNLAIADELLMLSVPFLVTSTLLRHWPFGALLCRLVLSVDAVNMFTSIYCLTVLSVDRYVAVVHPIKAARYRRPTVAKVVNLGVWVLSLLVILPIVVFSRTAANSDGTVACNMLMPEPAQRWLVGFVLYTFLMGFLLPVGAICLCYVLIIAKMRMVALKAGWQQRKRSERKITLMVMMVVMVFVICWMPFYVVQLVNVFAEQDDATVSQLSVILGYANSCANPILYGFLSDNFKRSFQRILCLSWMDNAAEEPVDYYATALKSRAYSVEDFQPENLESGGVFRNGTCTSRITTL

## COc1cc2cc(c1Cl)N(C)C(=O)C[C@H](OC(=O)[C@H](C)N(C)C(=O)CCSSCCCN[C@H](Cc1ccccc1)C(=O)N[C@H]1CSSC[C@@H](C(=O)N[C@H](C(=O)O)[C@@H](C)O)NC(=O)[C@H]([C@@H](C)O)NC(=O)[C@H](CCCCN)NC(=O)[C@@H](Cc3c[nH]c4ccccc34)NC(=O)[C@H](Cc3ccc(O)cc3)NC1=O)[C@]1(C)O[C@H]1[C@H](C)[C@@H]1C[C@@](O)(NC(=O)O1)[C@H](OC)/C=C/C=C(\C)C2 [Conjugate 80]
NCI-H69 SCLC tumors
  H69 tumor DM-1 levels: 91.2 nM

## COc1cc2cc(c1Cl)N(C)C(=O)C[C@H](OC(=O)[C@H](C)N(C)C(=O)CCSSCCC(=O)NCCCC[C@H]1C(=O)N[C@@H](Cc3ccc(O)cc3)C(=O)N[C@H](Cc3c[nH]c4ccccc34)C(=O)N[C@@H](CCCCN)C(=O)N[C@@H]([C@@H](C)O)C(=O)N[C@@H](Cc3ccccc3)C(=O)N1C)[C@]1(C)O[C@H]1[C@H](C)[C@@H]1C[C@@](O)(NC(=O)O1)[C@H](OC)/C=C/C=C(\C)C2 [Conjugate 10]
NCI-H69 SCLC tumors
  H69 tumor DM-1 levels: 72.1 nM

## COc1cc2cc(c1Cl)N(C)C(=O)C[C@H](OC(=O)[C@H](C)N(C)C(=O)CCSSCCNC(=O)CC[C@H]1C(=O)N[C@@H](Cc3ccc(O)cc3)C(=O)N[C@H](Cc3c[nH]c4ccccc34)C(=O)N[C@@H](CCCCN)C(=O)N[C@@H]([C@@H](C)O)C(=O)N[C@@H](Cc3ccccc3)C(=O)N1C)[C@]1(C)O[C@H]1[C@H](C)[C@@H]1C[C@@](O)(NC(=O)O1)[C@H](OC)/C=C/C=C(\C)C2 [Conjugate 14]
NCI-H69 SCLC tumors
  H69 tumor DM-1 levels: 70.1 nM

## CCCCCCCCN[C@H](Cc1ccccc1)C(=O)N[C@H]1CSSC[C@@H](C(=O)N[C@H](C(=O)NCCSSCCC(=O)N(C)[C@@H](C)C(=O)O[C@H]2CC(=O)N(C)c3cc(cc(OC)c3Cl)C/C(C)=C/C=C/[C@@H](OC)[C@@]3(O)C[C@H](OC(=O)N3)[C@@H](C)[C@@H]3O[C@@]23C)[C@@H](C)O)NC(=O)[C@H]([C@@H](C)O)NC(=O)[C@H](CCCCN)NC(=O)[C@@H](Cc2c[nH]c3ccccc23)NC(=O)[C@H](Cc2ccc(O)cc2)NC1=O [Conjugate 55]
NCI-H69 SCLC tumors
  H69 tumor DM-1 levels: 95.3 nM

## Indium-111 pentetreotide [Octreoscan]
SSTR4
  Ki: > 1000 nM
SSTR2
  Ki: 22 nM
SSTR5
  Ki: 237 nM
SSTR3
  Ki: 182 nM
SSTR1
  Ki: > 10000 nM

## COc1cc2cc(c1Cl)N(C)C(=O)C[C@H](OC(=O)[C@H](C)N(C)C(=O)CCS)C1(C)O[C@H]1[C@H](C)[C@@H]1C[C@@](O)(NC(=O)O1)[C@H](OC)/C=C/C=C(\C)C2 (stereo partly drawn) [DM-1, mertansine, reference compound]
[1]; Homo sapiens, NCI-H524, read-out: H524 IC50 (nM)
  IC50: 90 nM
[1]; Homo sapiens, NCI-H524, read-out: H524 IC50+ 100 uM octreotide (nM)
  IC50: 90 nM
[2]
  concentration at 24 h: 31.6 nM
[3]
  AST and ALT: dramatic increases in AST and ALT at day 5
  Day 5 weight change (%): −18%
  WBC count: dramatic decreases in WBC count
  clinical outcome: had to be euthanized on day 5 because they were moribund

## COc1cc2cc(c1Cl)N(C)C(=O)C[C@H](OC(=O)[C@H](C)N(C)C(=O)CCSSC[C@H](NC(=O)CC[C@H]1C(=O)N[C@@H](Cc3ccc(O)cc3)C(=O)N[C@H](Cc3c[nH]c4ccccc34)C(=O)N[C@@H](CCCCN)C(=O)N[C@@H]([C@@H](C)O)C(=O)N[C@@H](Cc3ccccc3)C(=O)N1C)C(=O)NC(C)(C)CC(C)(C)C)[C@]1(C)O[C@H]1[C@H](C)[C@@H]1C[C@@](O)(NC(=O)O1)[C@H](OC)/C=C/C=C(\C)C2 [Conjugate 16]
NCI-H69 SCLC tumors
  H69 tumor DM-1 levels: 96.4 nM

## COc1cc2cc(c1Cl)N(C)C(=O)C[C@H](OC(=O)[C@H](C)N(C)C(=O)CCSSCCOc1ccc(C[C@@H](N)C(=O)N[C@H]3CSSC[C@@H](C(=O)N[C@H](C(=O)O)[C@@H](C)O)NC(=O)[C@H]([C@@H](C)O)NC(=O)[C@H](CCCCN)NC(=O)[C@@H](Cc4c[nH]c5ccccc45)NC(=O)[C@H](Cc4ccc(O)cc4)NC3=O)cc1)[C@]1(C)O[C@H]1[C@H](C)[C@@H]1C[C@@](O)(NC(=O)O1)[C@H](OC)/C=C/C=C(\C)C2 [Conjugate 111]
NCI-H69 SCLC tumors
  H69 tumor DM-1 levels: 82.6 nM

## CCCCN(CCSSCCC(=O)N(C)[C@@H](C)C(=O)O[C@H]1CC(=O)N(C)c2cc(cc(OC)c2Cl)C/C(C)=C/C=C/[C@@H](OC)[C@@]2(O)C[C@H](OC(=O)N2)[C@@H](C)[C@@H]2O[C@@]12C)C(=O)CC[C@H]1C(=O)N[C@@H](Cc2ccc(O)cc2)C(=O)N[C@H](Cc2c[nH]c3ccccc23)C(=O)N[C@@H](CCCCN)C(=O)N[C@@H]([C@@H](C)O)C(=O)N[C@@H](Cc2ccccc2)C(=O)N1C [Conjugate 22]
NCI-H69 SCLC tumors
  H69 tumor DM-1 levels: 145 nM

## COc1cc2cc(c1Cl)N(C)C(=O)C[C@H](OC(=O)C(C)N(C)C(=O)CCSSCCC(=O)NCCCOCCOCCOCCCNC(=O)CC[C@H]1C(=O)N[C@@H](Cc3ccc(O)cc3)C(=O)N[C@H](Cc3c[nH]c4ccccc34)C(=O)N[C@@H](CCCCN)C(=O)N[C@@H]([C@@H](C)O)C(=O)N[C@@H](Cc3ccccc3)C(=O)N1C)[C@]1(C)O[C@H]1[C@H](C)[C@@H]1C[C@@](O)(NC(=O)O1)[C@H](OC)/C=C/C=C(\C)C2 (stereo partly drawn) [Conjugate 18]
[1]; 2 hours treatment, 70 hours further incubation, read-out: H524 IC50
  IC50: 1480 nM
[1]; read-out: H524 IC50+ 100 uM octreotide, 100 μM octreotide for 30 min before conjugate
  IC50: 2160 nM
NCI-H69 SCLC tumors
  H69 tumor DM-1 levels: 86.3 nM

## COc1cc2cc(c1Cl)N(C)C(=O)C[C@H](OC(=O)[C@H](C)N(C)C(=O)CCSSCCNC(=O)[C@@H](NC(=O)[C@@H]1CSSC[C@H](NC(=O)[C@H](N)Cc3ccccc3)C(=O)N[C@@H](Cc3ccc(O)cc3)C(=O)N[C@H](Cc3c[nH]c4ccccc34)C(=O)N[C@@H](CCCCN)C(=O)N[C@@H]([C@@H](C)O)C(=O)N1)[C@@H](C)O)[C@]1(C)O[C@H]1[C@H](C)[C@@H]1C[C@@](O)(NC(=O)O1)[C@H](OC)/C=C/C=C(\C)C2 [Conjugate 35]
NCI-H69 SCLC tumors
  H69 tumor DM-1 levels: 23.2 nM

## COc1cc2cc(c1Cl)N(C)C(=O)C[C@H](OC(=O)[C@H](C)N(C)C(=O)CCSSCCCN[C@H](Cc1ccccc1)C(=O)N[C@H]1CSSC[C@@H](C(=O)N[C@@H](Cc3c[nH]c4ccccc34)C(N)=O)NC(=O)[C@H](C(C)C)NC(=O)[C@H](CCCCN)NC(=O)[C@@H](Cc3c[nH]c4ccccc34)NC(=O)[C@H](Cc3ccc(O)cc3)NC1=O)[C@]1(C)O[C@H]1[C@H](C)[C@@H]1C[C@@](O)(NC(=O)O1)[C@H](OC)/C=C/C=C(\C)C2 [Conjugate 78] (H-[N(3-sulfanylpropyl)dPhe](X1)CY[dW]KVCW-NH2; disulfide 2-7)
NCI-H69 SCLC tumors
  H69 tumor DM-1 levels: 36.2 nM
